In US6377057B1, “Classification of biological agents according to the spectral density signature of evoked changes in cellular electric potential” (priority 1999, dated 2002):

Tested on: embryonic chick myocardial cells
Format: cell-based

| Compound | PSD modulation function of the action potential (additional data, concentration not given) | PSD ratio (PSD after agent ÷ PSD before agent), modulation function of the action potential |
| --- | --- | --- |
| CC[N+](CC)(CC)CC(=O)Nc1c(C)cccc1C.[Br-] [QX-314] | modulation function similar to that of TTX, but with additional attenuation at lower frequencies | – |
| NC1=N[C@H](O)[C@H]2[C@H]3O[C@]4(O)O[C@@H]([C@@H](O)[C@@]2(N1)[C@@H]4O)[C@]3(O)CO [Tetrodotoxin] | – | low pass filter effect that clearly reduced the high frequency components of the AP |
| CNC[C@H](O)c1ccc(O)c(O)c1 [Epinephrine] | – | enhanced the power of the AP across a 2 kHz bandwidth with a slight bandpass effect observed |
